Results published in patent US20230331718A1, “COMPOSITIONS FOR MODULATING SPLICING” (Skyhawk Therapeutics, Inc., priority 2020, published 2023).

Legend:
SMN2 Protein = test: SMN Protein Assay (MSD); type: cell-based, human; settings: SMA patient fibroblasts, 48 hours, 0.6 nM to 2.5 µM
Experimental: Spinal muscular atrophy (SMA) patient fibroblasts were plated in 96-well plates at 7,000 cells/well. Compounds were added in concentrations ranging from 0.6 nM to 2.5 µM, incubated for 48 hours and the cells were lysed with 100 µL of lysis buffer. 20 µL of lysate was used for SMN protein measurement by Mesoscale Discovery (MSD) assay developed by PharmOptima (Michigan). A standard curve prepared with SMN protein ranging from 1 µg/ml to 19.5pg/ml was used in each MSD plate to calculate the absolute SMN protein amount in each sample.

[1] = test system: SMN2 Splicing D7 (SMN Δ7 transcript); test: SMN Quantitative Splicing Assay (qPCR); type: cell-based, human; settings: 24 h, SMA patient fibroblasts (GM03813), 2.5 µM to 0.6 nM
Experimental: Spinal muscular atrophy (SMA) patient fibroblasts (GM03813, Coriell) were plated in 96-well plates at 50,000 cells/well. […] Treated cells were lysed and cDNA synthesized using the Fast Advanced Cells-to-Ct kit (Thermofisher A35378) according to the manufacturer’s instructions. 2 µL of each cDNA were used in qPCR reactions. […] Reactions were run in a Quant Studio 6 qPCR instrument with default settings.

SMILES | EC50 (SMN2 Protein) [nM] | IC50 ([1]; Homo sapiens, Fibroblast) [nM] | IC50 [1] [nM]
CN(c1cnc(-c2cc3cnn(C)c(=O)c3cc2O)nn1)[C@@H]1C[C@@]2(C)CC[C@H](N2)[C@@H]1F [Compound 186] | 0.01 to 15 | 16 to 50 | 
CN(c1cnc(-c2cc3c(F)cn(C)c(=O)c3cc2O)nn1)[C@@H]1CC2COCC(N2)[C@@H]1F (some centres unmarked) [Compound 219] |  | 16 to 50 | 
Cc1cc2cc(-c3ncc(N(C)[C@H]4CC5CCCC(N5)[C@H]4F)nn3)c(O)cc2cn1 (some centres unmarked) [Compound 48] | 0.01 to 15 | 0.01 to 15 | 
CN(c1cnc(-c2cc3ccn(C)c(=O)c3cc2O)nn1)C1CC2CC(F)(F)C(C1)N2 (centres unmarked) [Compound 141] | 101 to 500 |  | 101 to 500
CN(c1cnc(-c2cc3occc(=O)c3cc2O)nn1)[C@@H]1C[C@@]2(C)CCC[C@](C)(N2)[C@@H]1F [Compound 61] | 0.01 to 15 | 51 to 100 | 
CN(c1cnc(-c2cc3ccn(C(F)F)c(=O)c3cc2O)nn1)[C@H]1CC2CCC(N2)[C@H]1F (some centres unmarked) [Compound 155] | 0.01 to 15 | 0.01 to 15 | 
CCn1cnc2cc(-c3ncc(N(C)C4CC5CCC(N5)[C@@H]4F)nn3)c(O)cc2c1=O (some centres unmarked) [Compound 31] | 51 to 100 | 51 to 100 | 
CN(c1cnc(-c2cc3nccnc3cc2O)nn1)C1CC2CCC(N2)C1F (centres unmarked) [Compound 20] | 16 to 50 | 16 to 50 | 
CN(c1cnc(-c2cc3cncnc3cc2O)nn1)C1CC2CCC(N2)[C@@H]1F (some centres unmarked) [Compound 25] | 501 to 10000 | 101 to 500 | 
Cc1cc2cc(O)c(-c3ncc(N(C)[C@H]4C[C@@H]5CCCC(N5)[C@H]4F)nn3)cc2cn1 [Compound 78] | 0.01 to 15 | 0.01 to 15 | 
CC(C)n1cnc2cc(-c3ncc(N(C)C4CC5CCC(N5)[C@H]4F)nn3)c(O)cc2c1=O (some centres unmarked) [Compound 30] | 101 to 500 | 101 to 500 | 
CN(c1cnc(-c2cc3ccn(C)c(=O)c3cc2O)nn1)[C@@H]1C[C@H]2CCC(N2)[C@@H]1F [Compound 7B] | 0.01 to 15 | 16 to 50 | 
CN(c1cnc(-c2cc3occc(=O)c3cc2O)nn1)[C@@H]1CC2COC[C@@H](C1)N2 [Compound 69] | 0.01 to 15 | 0.01 to 15 | 
CN(c1cnc(-c2cc3cnn(C)c(=O)c3cc2O)nn1)[C@H]1CC2CCC(N2)[C@H]1F (single isomer, unassigned) [Compound 2B] | 0.01 to 15 | 0.01 to 15 | 
CN(c1cnc(-c2cc3c(F)cn(C)c(=O)c3cc2O)nn1)[C@H]1C[C@]2(C)CCC(N2)[C@H]1F [Compound 38] | 0.01 to 15 | 0.01 to 15 | 
CN(c1cnc(-c2cc3ncn(C)c(=O)c3cc2O)nn1)[C@H]1CC2CCC(N2)[C@H]1F (single isomer, unassigned) [Compound 3B] | 0.01 to 15 | 0.01 to 15 | 
CCc1cc(=O)c2cc(-c3ncc(N(C)[C@@H]4C[C@H]5CCCC(N5)[C@@H]4F)nn3)c(O)cc2o1 [Compound 115] | 16 to 50 | 101 to 500 | 
CN(c1cnc(-c2cc3ncn(C(F)F)c(=O)c3cc2O)nn1)[C@@H]1C[C@H]2CCC(N2)[C@@H]1F [Compound 196] | 51 to 100 | 16 to 50 | 
CCn1ccc2cc(O)c(-c3ncc(N(C)[C@H]4CC5CC[C@@H](N5)[C@H]4F)nn3)cc2c1=O [Compound 84] | 0.01 to 15 | 0.01 to 15 | 
CN(c1cnc(-c2cc3c(F)cn(C)c(=O)c3cc2O)nn1)[C@H]1CC2COCC(N2)[C@H]1F (some centres unmarked) [Compound 218] |  | 51 to 100 | 
CN(c1cnc(-c2cc3ccn(C)c(=O)c3cc2O)nn1)[C@H]1C[C@@H]2CC[C@@](C)(N2)[C@H]1F [Compound 171] | 0.01 to 15 | 0.01 to 15 | 
Cc1nc2cc(O)c(-c3ncc(N(C)[C@@H]4C[C@H]5CCC(N5)[C@@H]4F)nn3)cc2nc1C [Compound 86] | 51 to 100 | 51 to 100 | 
CN(c1cnc(-c2cc3c(=O)ccoc3cc2O)nn1)[C@@H]1CC2CCCC(N2)[C@@H]1F (some centres unmarked) [Compound 109] | 501 to 10000 | 501 to 10000 | 
CCn1cc(F)c2cc(-c3ncc(N(C)[C@H]4CC5CC(F)(F)C(C4)N5)nn3)c(O)cc2c1=O (some centres unmarked) [Compound 212] | 501 to 10000 | 51 to 100 | 

SMILES | EC50 (SMN2 Protein) [nM] | IC50 ([1]; Homo sapiens, Fibroblast) [nM] | IC50 [1] [nM]
CN(c1cnc(-c2cc3cnn(C)c(=O)c3cc2O)nn1)C1CC2CCCC(N2)C1F (centres unmarked) [Compound 131] | 0.01 to 15 |  | 0.01 to 15
Cc1cc2cc(-c3ncc(N(C)[C@H]4CC5CC[C@@H](N5)[C@H]4F)nn3)c(O)cc2c(=O)n1C [Compound 206] | 0.01 to 15 | 0.01 to 15 | 
[2H]C([2H])([2H])C([2H])([2H])n1cc(F)c2cc(-c3ncc(N(C)[C@H]4CC5CCC(N5)[C@H]4F)nn3)c(O)cc2c1=O (some centres unmarked) [Compound 208] | 0.01 to 15 | 0.01 to 15 | 
CN(c1cnc(-c2cc3ccn(C)c(=O)c3cc2O)nn1)[C@@H]1C[C@@]2(C)CC[C@H](N2)[C@@H]1F [Compound 174] | 0.01 to 15 | 0.01 to 15 | 
Cc1c(F)c2cc(-c3ncc(N(C)[C@H]4C[C@@H]5CC[C@@H](N5)[C@H]4F)nn3)c(O)cc2c(=O)n1C [Compound 204] | 0.01 to 15 | 0.01 to 15 | 
[2H]C([2H])([2H])n1ncc2cc(-c3ncc(N(C)[C@H]4C[C@@H]5CCC(N5)[C@H]4F)nn3)c(O)cc2c1=O [Compound 181] | 0.01 to 15 | 0.01 to 15 | 
[2H]C([2H])([2H])N(c1cnc(-c2cc3c(F)cn(C([2H])([2H])[2H])c(=O)c3cc2O)nn1)[C@@H]1C[C@H]2CC[C@H](N2)[C@@H]1F [Compound 194] | 0.01 to 15 | 0.01 to 15 | 
[2H]C([2H])([2H])n1ncc2cc(-c3ncc(N(C)[C@@H]4CC5CC[C@H](N5)[C@@H]4F)nn3)c(O)cc2c1=O [Compound 182] | 0.01 to 15 | 0.01 to 15 | 
CN(c1cnc(-c2cc3cnccc3cc2O)nn1)[C@H]1C[C@@H]2CC[C@@H](N2)[C@H]1F (single isomer, unassigned) [Compound 5B] | 0.01 to 15 | 16 to 50 | 
[2H]C([2H])([2H])N(c1cnc(-c2cc3ncn(C([2H])([2H])[2H])c(=O)c3cc2O)nn1)[C@H]1C[C@@H]2CCC(N2)[C@H]1F [Compound 175] | 0.01 to 15 | 0.01 to 15 | 
CCn1ccc2cc(-c3ncc(N(C)C4CC5CCC(N5)[C@H]4F)nn3)c(O)cc2c1=O (some centres unmarked) [Compound 34] | 0.01 to 15 | 0.01 to 15 | 
CN(c1cnc(-c2cc3ncn(C(F)F)c(=O)c3cc2O)nn1)[C@H]1CC2CC[C@@H](N2)[C@H]1F [Compound 195] | 0.01 to 15 | 0.01 to 15 | 
Cc1nc2cc(-c3ncc(N(C)[C@@H]4CC5CCC(N5)[C@@H]4F)nn3)c(O)cc2c(=O)n1C (some centres unmarked) [Compound 213] | 0.01 to 15 | 16 to 50 | 
Cc1nc2cc(O)c(-c3ncc(N(C)[C@@H]4CC5CC[C@H](N5)[C@@H]4F)nn3)cc2nc1C [Compound 55] | 16 to 50 | 16 to 50 | 
CN(c1cnc(-c2cc3ccn(C)c(=O)c3cc2O)nn1)C1CC2CC(F)(F)C(C1)N2 (centres unmarked) [Compound 142] | 0.01 to 15 |  | 16 to 50
CCn1c(C)nc2cc(-c3ncc(N(C)[C@H]4CC5CC(F)(F)C(C4)N5)nn3)c(O)cc2c1=O (some centres unmarked) [Compound 215] | 16 to 50 | 16 to 50 | 
CN(c1cnc(-c2cc3nccnc3cc2O)nn1)[C@@H]1CC2CC[C@H](N2)[C@@H]1F [Compound 19] | 101 to 500 | 101 to 500 | 
CN(c1cnc(-c2cc3cnccc3cc2O)nn1)[C@@H]1CC2CCC(N2)[C@@H]1F (single isomer, unassigned) [Compound 5A] | 101 to 500 | 101 to 500 | 
[2H]C([2H])([2H])n1ccc2cc(-c3ncc(N(C)[C@H]4CC5CCC(N5)[C@H]4F)nn3)c(O)cc2c1=O (some centres unmarked) [Compound 157] | 16 to 50 | 16 to 50 | 
Cc1coc2cc(-c3ncc(N(C)C4CC5CCC(N5)[C@@H]4F)nn3)c(O)cc2c1=O (some centres unmarked) [Compound 27] | 0.01 to 15 | 0.01 to 15 | 
CCn1cc(F)c2cc(-c3ncc(N(C)[C@H]4CC5COCC(N5)[C@H]4F)nn3)c(O)cc2c1=O (some centres unmarked) [Compound 221] |  | 501 to 10000 | 
CCn1cc(F)c2cc(-c3ncc(N(C)[C@@H]4CC5COCC(N5)[C@@H]4F)nn3)c(O)cc2c1=O (some centres unmarked) [Compound 222] |  | 101 to 500 | 
CNC(=O)c1ccc2cc(-c3ncc(N(C)[C@@H]4C[C@H]5CC[C@@H](C4)N5)nn3)c(O)cc2n1 [Compound 9] | 0.01 to 15 |  | 
